Source: PubChem BioAssay (NCI)
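Briefly, cells in 96-well plates were exposed to five compound concentrations for 48 h, and endpoints were estimated by linear interpolation. GI50 = concentration required for 50% inhibition of growth. TGI denotes the concentration required for complete inhibition of growth.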

Tests used:
Assay in all cases: NCI-60 cell line screen, 48 h
SN12C renal = system: SN12C renal
SNB-19 CNS = system: SNB-19 CNS
MDA-MB-231 breast = system: MDA-MB-231 breast
NCI/ADR-RES ovarian = system: NCI/ADR-RES ovarian
U251 CNS = system: U251 CNS
HCT-116 colon = system: HCT-116 colon
HL-60(TB) leukemia = system: HL-60(TB) leukemia
UACC-257 melanoma = system: UACC-257 melanoma
MOLT-4 leukemia = system: MOLT-4 leukemia
PC-3 prostate = system: PC-3 prostate
SK-MEL-2 melanoma = system: SK-MEL-2 melanoma
OVCAR-4 ovarian = system: OVCAR-4 ovarian
SK-MEL-5 melanoma = system: SK-MEL-5 melanoma
UACC-62 melanoma = system: UACC-62 melanoma
CAKI-1 renal = system: CAKI-1 renal
KM12 colon = system: KM12 colon
MALME-3M melanoma = system: MALME-3M melanoma
UO-31 renal = system: UO-31 renal
LOX IMVI melanoma = system: LOX IMVI melanoma
TK-10 renal = system: TK-10 renal
SW-620 colon = system: SW-620 colon
EKVX NSCLC = system: EKVX NSCLC
RXF 393 renal = system: RXF 393 renal
NCI-H226 lung = system: NCI-H226 lung
HS 578T breast = system: HS 578T breast
HCT-15 colon = system: HCT-15 colon
DU-145 prostate = system: DU-145 prostate
A549 NSCLC = system: A549 NSCLC
M14 melanoma = system: M14 melanoma
HOP-62 NSCLC = system: HOP-62 NSCLC
BT-549 breast = system: BT-549 breast
SNB-75 CNS = system: SNB-75 CNS
OVCAR-8 ovarian = system: OVCAR-8 ovarian
CCRF-CEM leukemia = system: CCRF-CEM leukemia
COLO 205 colon = system: COLO 205 colon
T-47D breast = system: T-47D breast
MDA-MB-435 = system: MDA-MB-435
NCI-H522 lung = system: NCI-H522 lung
SK-OV-3 ovarian = system: SK-OV-3 ovarian
OVCAR-5 ovarian = system: OVCAR-5 ovarian
786-0 renal = system: 786-0 renal
NCI-H23 lung = system: NCI-H23 lung
A498 renal = system: A498 renal
SF-268 CNS = system: SF-268 CNS
SF-295 CNS = system: SF-295 CNS
SF-539 CNS = system: SF-539 CNS
ACHN renal = system: ACHN renal
SK-MEL-28 melanoma = system: SK-MEL-28 melanoma
IGROV1 ovarian = system: IGROV1 ovarian
OVCAR-3 ovarian = system: OVCAR-3 ovarian
NCI-H460 lung = system: NCI-H460 lung
K-562 leukemia = system: K-562 leukemia
HT29 colon = system: HT29 colon
SR leukemia = system: SR leukemia
RPMI-8226 leukemia = system: RPMI-8226 leukemia
HCC-2998 colon = system: HCC-2998 colon
HOP-92 NSCLC = system: HOP-92 NSCLC
MCF7 breast = system: MCF7 breast

C=CCCC(=O)N1CCC(C(=O)OCC)C1=O (stereo not drawn)
TGI (SN12C renal): > 100 µM
TGI (SNB-19 CNS): > 100 µM
TGI (MDA-MB-231 breast): > 100 µM
TGI (NCI/ADR-RES ovarian): > 100 µM
TGI (U251 CNS): > 100 µM
TGI (HCT-116 colon): > 100 µM
TGI (HL-60(TB) leukemia): > 100 µM
TGI (UACC-257 melanoma): > 100 µM
TGI (MOLT-4 leukemia): > 100 µM
TGI (PC-3 prostate): > 100 µM
TGI (SK-MEL-2 melanoma): > 100 µM
TGI (OVCAR-4 ovarian): > 100 µM
TGI (SK-MEL-5 melanoma): > 100 µM
TGI (UACC-62 melanoma): > 100 µM
TGI (CAKI-1 renal): > 100 µM
TGI (KM12 colon): > 100 µM
TGI (MALME-3M melanoma): > 100 µM
TGI (UO-31 renal): > 100 µM
TGI (LOX IMVI melanoma): > 100 µM
TGI (TK-10 renal): > 100 µM
TGI (SW-620 colon): > 100 µM
TGI (EKVX NSCLC): > 100 µM
TGI (RXF 393 renal): > 100 µM
TGI (NCI-H226 lung): > 100 µM
TGI (HS 578T breast): > 100 µM
TGI (HCT-15 colon): > 100 µM
TGI (DU-145 prostate): > 100 µM
TGI (A549 NSCLC): > 100 µM
TGI (M14 melanoma): > 100 µM
TGI (HOP-62 NSCLC): > 100 µM
TGI (BT-549 breast): > 100 µM
TGI (SNB-75 CNS): > 100 µM
TGI (OVCAR-8 ovarian): > 100 µM
TGI (CCRF-CEM leukemia): > 100 µM
TGI (COLO 205 colon): > 100 µM
TGI (T-47D breast): > 100 µM
TGI (MDA-MB-435): > 100 µM
TGI (NCI-H522 lung): > 100 µM
TGI (SK-OV-3 ovarian): > 100 µM
TGI (OVCAR-5 ovarian): > 100 µM
TGI (786-0 renal): > 100 µM
TGI (NCI-H23 lung): > 100 µM
TGI (A498 renal): > 100 µM
TGI (SF-268 CNS): > 100 µM
TGI (SF-295 CNS): > 100 µM
TGI (SF-539 CNS): > 100 µM
TGI (ACHN renal): > 100 µM
TGI (SK-MEL-28 melanoma): > 100 µM
TGI (IGROV1 ovarian): > 100 µM

O=c1ccc(N=Nc2ccccc2)ccc1Cl
GI50 (SN12C renal): 12.9 µM
TGI (SN12C renal): 25.7 µM
GI50 (SNB-19 CNS): 26.2 µM
TGI (SNB-19 CNS): 91.4 µM
GI50 (MDA-MB-231 breast): 9.01 µM
TGI (MDA-MB-231 breast): 21.2 µM
GI50 (U251 CNS): 2.78 µM
TGI (U251 CNS): 9.29 µM
GI50 (OVCAR-3 ovarian): 4.39 µM
TGI (OVCAR-3 ovarian): 15.6 µM
GI50 (HCT-116 colon): 2.61 µM
TGI (HCT-116 colon): 9.49 µM
GI50 (HL-60(TB) leukemia): 18.1 µM
TGI (HL-60(TB) leukemia): 87.1 µM
GI50 (NCI-H460 lung): 15.4 µM
TGI (NCI-H460 lung): 37.7 µM
GI50 (UACC-257 melanoma): 11.5 µM
TGI (UACC-257 melanoma): 24 µM
GI50 (MOLT-4 leukemia): 0.749 µM
TGI (MOLT-4 leukemia): > 100 µM
GI50 (PC-3 prostate): 5.16 µM
TGI (PC-3 prostate): 18.7 µM
GI50 (SK-MEL-2 melanoma): 13.9 µM
TGI (SK-MEL-2 melanoma): 29.8 µM
GI50 (OVCAR-4 ovarian): 12.8 µM
TGI (OVCAR-4 ovarian): 25.9 µM
GI50 (SK-MEL-5 melanoma): 15.7 µM
TGI (SK-MEL-5 melanoma): 31.7 µM
GI50 (UACC-62 melanoma): 12.7 µM
TGI (UACC-62 melanoma): 25.6 µM
GI50 (CAKI-1 renal): 13 µM
TGI (CAKI-1 renal): 25.8 µM
GI50 (KM12 colon): 12.7 µM
TGI (KM12 colon): 32.4 µM
GI50 (K-562 leukemia): 1 µM
TGI (K-562 leukemia): > 100 µM
GI50 (HT29 colon): 5.62 µM
TGI (HT29 colon): 19.2 µM
GI50 (MALME-3M melanoma): 3.57 µM
TGI (MALME-3M melanoma): 12.4 µM
GI50 (UO-31 renal): 7.39 µM
TGI (UO-31 renal): 20.7 µM
GI50 (LOX IMVI melanoma): 2.24 µM
TGI (LOX IMVI melanoma): 6.74 µM
GI50 (TK-10 renal): 13.7 µM
TGI (TK-10 renal): 26.6 µM
GI50 (SR leukemia): 1.73 µM
TGI (SR leukemia): > 100 µM
GI50 (SW-620 colon): 3.14 µM
TGI (SW-620 colon): 12.8 µM
GI50 (RPMI-8226 leukemia): 3.76 µM
TGI (RPMI-8226 leukemia): 27.4 µM
GI50 (EKVX NSCLC): 11.5 µM
TGI (EKVX NSCLC): 29.1 µM
GI50 (RXF 393 renal): 8.19 µM
TGI (RXF 393 renal): 22.1 µM
GI50 (NCI-H226 lung): 19.6 µM
TGI (NCI-H226 lung): 66.1 µM
GI50 (HS 578T breast): 21.4 µM
TGI (HS 578T breast): 62.7 µM
GI50 (HCT-15 colon): 2.53 µM
TGI (HCT-15 colon): 8.07 µM
GI50 (DU-145 prostate): 15.5 µM
TGI (DU-145 prostate): 29 µM
GI50 (A549 NSCLC): 17 µM
TGI (A549 NSCLC): 38.7 µM
GI50 (M14 melanoma): 2.63 µM
TGI (M14 melanoma): 12.7 µM
GI50 (HOP-62 NSCLC): 31.3 µM
TGI (HOP-62 NSCLC): > 100 µM
GI50 (BT-549 breast): 3.22 µM
TGI (BT-549 breast): 9.77 µM
GI50 (SNB-75 CNS): 15.9 µM
TGI (SNB-75 CNS): 92.3 µM
GI50 (OVCAR-8 ovarian): 3.49 µM
TGI (OVCAR-8 ovarian): 13.1 µM
GI50 (CCRF-CEM leukemia): 1.39 µM
TGI (CCRF-CEM leukemia): 26.7 µM
GI50 (COLO 205 colon): 5.07 µM
TGI (COLO 205 colon): 18.4 µM
GI50 (T-47D breast): 3.14 µM
TGI (T-47D breast): 26.4 µM
GI50 (MDA-MB-435): 14.8 µM
TGI (MDA-MB-435): 29.6 µM
GI50 (NCI-H522 lung): 1.8 µM
TGI (NCI-H522 lung): 3.67 µM
GI50 (SK-OV-3 ovarian): 48 µM
TGI (SK-OV-3 ovarian): > 100 µM
GI50 (OVCAR-5 ovarian): 15.4 µM
TGI (OVCAR-5 ovarian): 29.3 µM
GI50 (786-0 renal): 3.83 µM
TGI (786-0 renal): 13.6 µM
GI50 (HCC-2998 colon): 12.2 µM
TGI (HCC-2998 colon): 26.4 µM
GI50 (NCI-H23 lung): 6.25 µM
TGI (NCI-H23 lung): 21.9 µM
GI50 (A498 renal): > 100 µM
TGI (A498 renal): > 100 µM
GI50 (HOP-92 NSCLC): 13.9 µM
TGI (HOP-92 NSCLC): 28.1 µM
GI50 (SF-268 CNS): 18.8 µM
TGI (SF-268 CNS): 43.5 µM
GI50 (MCF7 breast): 3.16 µM
TGI (MCF7 breast): 18 µM
GI50 (SF-295 CNS): 18.1 µM
TGI (SF-295 CNS): 46.6 µM
GI50 (SF-539 CNS): 5.9 µM
TGI (SF-539 CNS): 18.3 µM
GI50 (ACHN renal): 3.11 µM
TGI (ACHN renal): 10.2 µM
GI50 (SK-MEL-28 melanoma): 14.5 µM
TGI (SK-MEL-28 melanoma): 27.9 µM
GI50 (IGROV1 ovarian): 13.8 µM
TGI (IGROV1 ovarian): 27.4 µM
